Values of other authors, collected in patent US20250178999A1, “ONE STEP SYNTHESIS OF 1-TETRALONE COMPOUNDS AND USES THEREOF IN THE PREPARATION OF (+)-TETRALONE ABSCISIC ACID (ABA)” (University of Saskatchewan, priority 2022, published 2025).
Like-named read-outs stand apart in the source and are kept apart here.

Columns and labels:
Arabidopsis = settings: for IC50: Vaidya et al 2019, read-out: IC50 in germination of Arabidopsis
ABA receptors [1] = settings: Arabidopsis receptors; Vaidya et al 2019
ABA receptors [2] = settings: wheat receptors; Vaidya et al 2019
corn cell = settings: Nyangulu et al 2006
rice seedling = settings: Han et al 2015
lettuce = settings: Han et al 2015
[3] = Nyangulu et al 2006
[4] = system: corn cell suspension system; settings: Nyangulu et al 2006

| IC50 (Arabidopsis) | relative potency of 7 and (+)-5 by receptor subgroup (ABA receptors [1]) | relative potency of 7 and (+)-5 by receptor subgroup (ABA receptors [2]) | SMILES | also measured |
| --- | --- | --- | --- | --- |
| 194 nM | more potent in subgroup II | more potent in subgroup II | CC(=C/C(=O)O)/C=C/[C@@]1(O)c2ccccc2C(=O)CC1(C)C [(+)-5, (2Z,4E)-5-((S)-1-hydroxy-2,2-dimethyl-4-oxo-1,2,3,4-tetrahydronaphthalen-1-yl)-3-methylpenta-2,4-dienoic acid] | activity in seed germination inhibition assay in Arabidopsis compared to ABA (Arabidopsis; Nyangulu et al 2006): higher activity than ABA; activity in corn cell growth inhibition assay compared to ABA (corn cell): higher activity than ABA |
| – | – | – | CC(=C/C(=O)O)/C=C/C1(O)c2ccccc2C(=O)CC1(C)C (racemic) [(±)-5] | activity in seed germination assay in arabidopsis compared to racemic ABA (Arabidopsis; Han et al 2015): higher activity than racemic ABA; activity in rice seedling growth inhibition assay compared to racemic ABA (rice seedling): higher activity than racemic ABA; activity in seed germination assay in lettuce compared to racemic ABA (lettuce): higher activity than racemic ABA |
| 62 nM | more the active in subgroup III | more the active in subgroup III | N#Cc1c(C2CC2)cc(CC(=O)NC2(C(=O)O)CCCCC2)cc1C1CC1 [Compound 7, opabactin, reference compound] | – |
| – | – | – | CC(=C/C(=O)O)/C=C/[C@@]1(O)c2ccccc2C(=O)C[C@]1(C)CO [Compound 8] | biological activity [3]: retain biological activity; metabolic fate in corn cell suspension system [4]: not converted to a phaseic acid-like compound |

| SMILES | IC50 (Arabidopsis) | relative potency of 7 and (+)-5 by receptor subgroup (ABA receptors [1]) | relative potency of 7 and (+)-5 by receptor subgroup (ABA receptors [2]) | also measured |
| --- | --- | --- | --- | --- |
| CC1=CC(=O)CC(C)(C)[C@@]1(O)/C=C/C(C)=C\C(=O)O [(+)-1, (2Z,4E)-5-[(1S)-1-hydroxy-2,6,6-trimethyl-4-oxocyclohex-2-en-1-yl]-3-methylpenta-2,4-dienoic acid, reference compound] | 601 nM | – | – | – |
